Measured values from article PMC6005341, “Identification of “sarsasapogenin-aglyconed” timosaponins as novel Aβ-lowering modulators of amyloid precursor protein processing” (Chemical Science, 2016).

Legend:
[1] = tested on: Mouse primary cortical neurons; set-up: method as in earlier work; details: ref J. Biol. Chem. (2005) 280: 5829, J. Biol. Chem. (2010) 285:28472, read-out: In vitro IC50 Aβ inhibition; cited from earlier work
[2] = tested on: brain Aβ / amyloid in APPswe transgene; details: cited from earlier work
[3] = tested on: HEK293 expressing APPswe; set-up: method as in J Neurosci Res (2012) 92: 108; details: ref J Neurosci Res (2012) 92: 108, read-out: In vitro IC50 Aβ inhibition; cited from earlier work
[4] = tested on: HEK293 expressing APP; set-up: method as in J. Biol. Chem. (2010) 285:9110; details: ref J. Biol. Chem. (2010) 285:9110, read-out: In vitro IC50 Aβ inhibition; cited from earlier work
[5] = tested on: Brain Aβ42 in APP/PS1 transgene; set-up: method as in J. Biol. Chem. (2010) 285:9110; details: diet with 0.35% for 15 weeks, ref J. Biol. Chem. (2010) 285:9110; cited from earlier work
[6] = tested on: β-secretase; set-up: method as in PMID 23082924; details: rat retina; cited from earlier work
[7] = tested on: SH-SY5Y Cells expressing APP; set-up: method as in J Neurosci. (2005) 25: 3032; J. Biol. Chem (2011) 286:14028; details: ref J Neurosci. (2005) 25: 3032, J. Biol. Chem (2011) 286:14028, read-out: In vitro IC50 Aβ inhibition; cited from earlier work
[8] = tested on: Aβ42 production in N2A-APPswe cells; experiment: Aβ42 in conditioned medium of N2A-APPswe cells by ELISA, 18 h treatment; format: cell-based; details: N2a-APPswe, read-out: IC50 in lowering Aβ42 production, N2A-APPswe cells; mean ± standard deviation; n ≥ 3
Description: Sigma-Aldrich Chemical Co. unless otherwise specified. SSG (1) was purchased from Wako Pure Chemical Industries, Ltd. Diosgenin (6), Dioscin (9), Polyphyllin D (10), Timosaponin BI (22) and Timosaponin BII (23) were purchased from Chengdu Must Bio-Technology Co.
Ltd. Yamogenin (7) was bought from Ambinter c/o Greenpharma while Smilagenin (24) was bought from Steraloids Inc. Substances dissolved in DMSO as stock solutions. Cell culture medium constituents were purchased from Life Technologies, Inc.
Cell culture: Neuro-2A cells expressing Swedish mutants of APP (N2A-APPswe provided by Prof. Yifan Han, The Hong Kong Polytechnic University)1 was cultured in minimal essential medium with 2 mM glutamine, 2 mM pyruvate and 10% fetal bovine serum. […]
Aβ ELISA: Aβ concentrations in conditioned medium were assayed using ELISA kits for […]

[9] = tested on: Aβ42 levels in the brain; experiment: In vivo brain Aβ42 level by ELISA after oral dosing; details: 100 mg kg^–1 oral gavage, three times in 2 days, 3–5 month old C57BL/6 mice
Description: was performed at least three times. The lowest binding scores were computed and the conformations of the corresponding binding pose presented.
Quantum mechanics/Molecular mechanics. The binding between transmembrane and substrate was further optimized using the QM/MM approach and NWChem software. The quantum part (QM) included TAIII (total 116 atoms), while the rest of the system was modelled as the molecular mechanics (MM) level. The QM region was treated at the DFT level using the B3LYP method. The 6-31G* Pople basis set was employed for all the atoms.
The transmembrane was described with the AMBER parm99 force field. The binding structure was solvated in a cubic box with 6872 classical SPC/E water molecules. Three negative counter ions (Cl-) were added to neutralize the charges in the system. The structure was optimized by performing the BFGS algorithm for the QM part and the steepest descent algorithm for the MM part. The optimization of these two regions (QM and MM) was alternated until self-consistency was reached.
Animal experiments: Male C57BL/6N mice were housed in environmentally controlled room (temperature: 25 ± 2 °C, humidity: 50 ± 5%, 12-h light-dark cycle) in Laboratory Animal Unit, The University of Hong Kong and were freely access to food and water. TAIII, TAI SSG and compound 34 were dissolved in 5% Tween 80 and given to the mice by oral gavage at three repeated doses of 100 mg/kg in 48 hours. Mice were administrated with 5% Tween 80 (control group), TAIII, TAI SSG and 34. The experimental procedures were performed with the approval of Committee of Use of Live Animal for Teaching and Research of The University of Hong Kong. Blood (about 600-800 µL) was collected by cardiac puncture and added with 1/10 volume of Na2EDTA (20 mg/mL) to prevent coagulation. After centrifugation at 3000 g for 15 min at 4 °C, plasma was transferred to a centrifuge tube. […] Both plasma and brain samples were stored at -80 °C until they were analyzed. The Aβ42 levels were determined by Wako High Sensitive Aβx-42 ELISA kit. […]

[10] = Plasma and brain concentrations by LC-MS/MS; format: in vivo, mice
Description: Animal experiments: Male C57BL/6N mice were housed in environmentally controlled room (temperature: 25 ± 2 °C, humidity: 50 ± 5%, 12-h light-dark cycle) in Laboratory Animal Unit, The University of Hong Kong and were freely access to food and water. TAIII, TAI SSG and compound 34 were dissolved in 5% Tween 80 and given to the mice by oral gavage at three repeated doses of 100 mg/kg in 48 hours. Mice were administrated with 5% Tween 80 (control group), TAIII, TAI SSG and 34. The experimental procedures were performed with the approval of Committee of Use of Live Animal for Teaching and Research of The University of Hong Kong. Blood (about 600-800 µL) was collected by cardiac puncture and added with 1/10 volume of Na2EDTA (20 mg/mL) to prevent coagulation. After centrifugation at 3000 g for 15 min at 4 °C, plasma was transferred to a centrifuge tube. The brain was dissected into two hemispheres on ice, weighed and frozen in liquid nitrogen immediately. The left brain was homogenized with 1 mL of buffer containing 5 M guanidine HCl, 50 mM Tris HCl, pH 8.0, with protease inhibitor cocktail and AEBSF using a Polytron and the homogenates were allowed to stand at room temperature for 3h. Both plasma and brain samples were stored at -80 °C until they were analyzed. […]
B. Determination of timosaponin levels in mice plasma and brain by ultra-high pressure liquid chromatography tandem mass spectrometry
The UPLC-ESI-QTOF consists of a Waters Q-TOF PremierTM mass spectrometer (Micromass MS Technologies, Manchester, UK) operated in positive ion mode and a Waters ACQUITY TM UPLC system. The mass spectrometer conditions were optimized as follows: source […]
temperature, 120 °C; desolvation temperature, 500 °C; nebulization gas flow rate, 1000 L/h; cone gas flow rate, 20 L/h; capillary voltage, 2.5 kV; sampling cone voltage, 28V. The data were collected into two separate data channels with the instrument spending 0.5 s on data acquisition for each channel and a 0.1 s inter-channel delay. The mass spectrometer was calibrated by using the solution of sodium formate (0.5 mM) and the TOF scan range was from 100 to 1000 Da. In order to improve mass measurement accuracy a lock mass compound (50 pg µL−1 solution of leucine encephalin; m/z 556.2771) was continuously infused at a 0.5 mL min-1 using the built-in syringe pump of the instrument.
Sample was loaded into a Waters ACQUITY TM BEH C18 column (100 × 2.1 mm i.d., 1.7 µM) connected to a Waters ACQUITY TM BEH C18 guard column (5 × 2.1 mm i.d., 1.7 µM). The gradient elution system consisted of 0.1% formic acid in water (A) and 0.1% formic acid in acetonitrile (B). Separation was achieved by using: 30%-55% B from 0 to 3 min; 55-100% B from 3 to 6 min; 100% B from 6 to 12 min and returned to initial conditions and equilibrated for 3 minutes. The flow rate was 0.3 mL/min and the injection volume was 5 µL.
Standard preparation and sample preparation
Stock solution (10 µM ) of each analyte was prepared by dissolving in methanol. They were subject to serial dilution to give calibration curves of SSG 1 (plasma: y = 8.7485× - 0.0676; […]
each concentration of each analyte was transferred to a centrifuge tube and evaporated to dryness by a concentrator. Dioscin (20 µL , 10 µM) was added as an internal standard followed by methanol (130 µL) and control plasma (50 µL). The mixture was vortexed for 5 s and centrifuged (15000 × g) for 15 min. The supernatant was collected and evaporated to dryness by a concentrator. Methanol (100 µL) was added and then vortexed again for 10 s and centrifuged (15000 × g) for 20 min. The supernatant (5 µL) was subject to LC-MS/MS analysis. Analyte-treated plasma, control brain and analyte-treated brain were prepared in a […]
The acquisition and processing of data were performed by Masslynx (version 4.1) software.
Mass window of ±10 mDa and mass resolution of 9000 were set for both molecular ions and product ions. MS full scan was applied to acquire high abundant molecular ions [M+H]+ with […]

[11] = tested on: N2A expressing APPswe; set-up: method as in J. Neurosci., (2005) 25:8807; details: ref J. Neurosci., (2005) 25:8807, read-out: In vitro IC50 Aβ inhibition; cited from earlier work
[12] = any metabolite, mice n = 6, three oral doses 100 mg/kg in two days

## COc1cc(/C=C/C(=O)CC(=O)/C=C/c2ccc(O)c(OC)c2)ccc1O [Curcumin]
[1]
  IC50: > 20 µM
[2]; chow with 500 ppm for 22 weeks, ref J. Biol. Chem. (2005) 280: 5829, J. Biol. Chem. (2010) 285:28472
  Amyloid deposition: reduced

## C/C=C1\[C@H]2C=C(C)C[C@]1(N)c1ccc(=O)[nH]c1C2 [Huperzine A]
[3]
  IC50: ~10 µM

## Oc1ccc(/C=C/c2cc(O)cc(O)c2)cc1 [Resveratrol]
[4]
  IC50: ~20 µM
[5]
  Brain Aβ42 reduced by: 20%

## C[C@@H](CC[C@@]1(O)O[C@H]2C[C@H]3[C@@H]4CC[C@@H]5C[C@@H](O[C@@H]6O[C@H](CO)[C@H](O)[C@H](O)[C@H]6O[C@@H]6O[C@H](CO)[C@@H](O)[C@H](O)[C@H]6O)CC[C@]5(C)[C@H]4CC[C@]3(C)[C@H]2[C@@H]1C)CO[C@@H]1O[C@H](CO)[C@@H](O)[C@H](O)[C@H]1O [Timosaponin B II (23), timosaponin B II]
[6]
  up-regulation of β-secretase induced by ferric chloride: inhibit

## CC/C=C\C/C=C\C/C=C\C/C=C\C/C=C\C/C=C\CCC(=O)O [docosahexaenoic acid]
[7]
  IC50: ~100 µM
[2]; diet with 0.5% level for 5 months, ref J Neurosci. (2005) 25: 3032, J. Biol. Chem (2011) 286:14028
  Total Aβ reduced by: 70%

## CC1CCC2(OC1)OC1CC3C4CCC5CC(OCC(=O)NCC6OC(O)C(O)C(O)C6O)CCC5(C)C4CCC3(C)C1C2C (stereo not drawn) [α-, β-OH SSG (34), α-, β-OH SSG]
[8]
  IC50: 7.3 ± 4 µM
[9]
  reduction of Aβ42 levels in the brain: 87% ± 15%
[10]; [12]
  Brain Metabolite: Not detected
  Plasma Metabolite: Not detected
[10]; mice n = 6, three oral doses 100 mg/kg in two days
  Brain Precursor: 0.025 ± 0.041 µM
[10]; mice n = 6, three repeated oral doses 100 mg/kg in two days
  Plasma Precursor: 0.051 ± 0.072 µM

## Epigallocatechin-3-gallate [Epigallocatechin-3-gallate (EGCG)]
[11]
  IC50: ~20 µM
